Measurements published in patent US8450525B2, “Histone deacetylase inhibitors” (Orchid Chemicals & Pharmaceuticals Limited, priority 2007, dated 2013).

Tests used:
[1] = tested on: HCT 116 (colon) cells; experiment: Anti-cancer screen, growth inhibition (MTT); format: cell-based; conditions: Homo sapiens, HCT-116 cells, 48 hours of incubation
Method in brief: (§1)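 MTT added for 3 h at 37° C, formazan dissolved in DMSO and A570 read. A T0 plate was measured at compound addition.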

[2] = tested on: NCI-H460 (lung) cells; experiment: Anti-cancer screen, growth inhibition (MTT); format: cell-based; conditions: Homo sapiens, 48 hours of incubation
Method in brief: as §1

[3] = tested on: U251 (glioma) cells; experiment: Anti-cancer screen, growth inhibition (MTT); format: cell-based; conditions: Homo sapiens, U-251 cells, 48 hours of incubation
Method in brief: as §1

[4] = tested on: T1, HDAC (Mouse Liver Extract); experiment: HDAC inhibition assay using Boc-Lys(Ac)-AMC substrate, mouse liver enzyme; format: biochemical;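 as to IC50: IC50 for inhibition of HDAC activity in mouse liver extract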
T1 construct: Mouse liver enzyme (10 mg/ml) was diluted 1:6 with HDAC buffer

| Structure (SMILES) | GI50 [1] [µM] | GI50 [2] [µM] | GI50 [3] [µM] | HDAC Inhibition % (1 μM) [4] [%] | HDAC Inhibition % (10 μM) [4] [%] | IC50 [4] [µM] |
| --- | --- | --- | --- | --- | --- | --- |
| O=C(CCCCCNC(=O)c1ccc(/C=C(/C(=O)NC2CC2)c2ccccc2F)cc1)NO [Example 163, 4-(3-(Cyclopropylamino)-2-(2-fluorophenyl)-3-oxoprop-1-en-1-yl)-N-(6-(hydroxyamino)-6-oxohexyl)benzamide] | 32 | 10 | 41 | 81.7 | 97.7 |  |
| Nc1ccccc1NC(=O)c1ccc(/C=C(/C(=O)NC2CC2)c2c[nH]c3ccccc23)cc1 [Example 124, N-(2-Aminophenyl)-4-(3-(cyclopropylamino)-3-oxo-2-(1H-indol-3-yl)prop-1-en-1-yl)benzamide] | 2 | 4.5 | 2.6 | 34.7 | 63.2 |  |
| COc1ccc(/C(=C\c2ccc(C(=O)NCc3ccc(C(=O)NO)cc3)cc2)C(=O)NC2CC2)cc1 [Example 154, 4-(3-(Cyclopropylamino)-2-(4-methoxyphenyl)-3-oxoprop-1-en-1-yl)-N-(4-(hydroxycarbamoyl)benzyl)benzamide] | 27 | 33 | 20 | 87.2 | 97.5 |  |
| O=C(/C=C/c1ccc(/C=C(/C(=O)Nc2ccccc2)c2cccc(OC3CCCC3)c2)cc1)NO [Example 44, 2-(3-Cyclopentyloxyphenyl)-3-(4-((1E)-3-(hydroxyamino)-3-oxoprop-1-en-1-yl)phenyl)-N-phenylacrylamide] | 7 | 6.3 | 5 | 77.4 | 95.9 | 0.37 |
| CC(C)NC(=O)/C(=C/c1ccc(/C=C/C(=O)NO)cc1)c1ccc(F)c(F)c1 [Example 24, N-Isopropyl-2-(3,4-difluorophenyl)-3-(4-((1E)-3-(hydroxyamino)-3-oxoprop-1-en-1-yl)phenyl)acrylamide] | 1.2 | 20 | 10.5 | 78.3 | 95.0 |  |
| Nc1ccccc1NC(=O)c1ccc(/C=C(/C(=O)NC2CC2)c2cc(F)ccc2F)cc1 [Example 130, N-(2-Aminophenyl)-4-(2-(2,5-difluorophenyl)-3-(cyclopropylamino)-3-oxoprop-1-en-1-yl)benzamide] | 5.8 | 9 | 16 | 34.7 | 56.0 |  |
| O=C(/C=C/c1ccc(/C=C(/C(=O)N2CCOCC2)c2ccc(F)cc2)cc1)NCc1ccc(C(=O)NO)cc1 [Example 96, 4-(((1E)-3-(4-(3-(Morpholino)-2-(4-fluorophenyl)-3-oxoprop-1-en-1-yl)phenyl)acrylamido)methyl)-N-hydroxybenzamide] | 85 | > 100 | 5 | 100.0 | 100.0 |  |
| COc1cccc(/C(=C\c2ccc(/C=C/C(=O)Nc3ccccc3N)cc2)C(=O)NC2CC2)c1 [Example 69, N-Cyclopropyl-3-(4-((1E)-3-(2-aminophenylamino)-3-oxoprop-1-en-1-yl}phenyl)-2-(3-methoxyphenyl)acrylamide] | 94 | 74 | > 100 | 25.5 | 54.4 |  |
| O=C(/C=C/c1ccc(C=C(C(=O)NC2CC2)c2cccs2)cc1)NCc1ccc(C(=O)NO)cc1 (stereo in doubt) [Example 94, 4-(((1E)-3-(4-(3-(Cyclopropylamino)-2-(thiophen-2-yl)-3-oxoprop-1-en-1-yl)phenyl)acrylamido)methyl)-N-hydroxybenzamide] | 8 | 20 | 1.8 | 99.8 | 100 | < 0.001 |
